Reference: ChEMBL document CHEMBL5728754 (2021)

Each compound was assayed against Mitogen-activated protein kinase kinase kinase kinase 1 (Homo sapiens, UniProt Q92918) (assay: HPK1 Biochemical Enzyme Assay: HPK1 enzyme inhibition was measured using a microfluidic mobility shift assay (MSA). The reactions were conducted in 50 μL volumes in 96-well plates, and contained 0.5 nM human full-length recombinant HPK1, 3 μM phosphoacceptor peptide, 5FAM-[…]-COOH (CPC Scientific, Sunnyvale, Calif.), test compound (11-dose 3-fold serial dilutions, 2% DMSO final) or DMSO only, 0.002% Tween-20, 1 mM DTT and 2.5 mM MgCl2 in 50 mM MOPS (3-(N-morpholino)propanesulfonic acid), pH 7.8, buffer and were initiated by addition of 75 μM ATP, following a 20-min preincubation. The reactions were conducted for 60 min at 37° C., stopped by the addition of 50 μL of 0.015 M EDTA, pH 8, and the extent of reactions (˜15-20% conversion with no inhibitor) was determined after electrophoretic separation of the fluorescently labeled peptide substrate and phosphorylated product on an LabChip EZ Reader II (PerkinElmer, Inc., Waltham, Mass.).Inhibition of HPK1 was also measured using the fluorescence based chelation-enhanced fluorescence (CHEF) method (1), using a proprietary fluorescent peptide substrate, in which a cysteine residue is alkylated with a sulfonamido-oxine based derivative to afford an amino acid termed C-Sox (CSx). The assay was conducted similarly as described for the MSA method above, but using 3 μM Ac-[CSx][…]-amide peptide substrate (also known as AQT0178 when purchased from AssayQuant Technologies Inc., Hopkinton, Mass.) and 45 μM ATP. Initial reaction velocities were determined by following the peptide fluorescence (λex=360 nm, λem=500 nm) at 30° C. for 15 min in a Tecan M1000 plate reader (Tecan Group Ltd., Männedorf, Zürich, Switzerland). […] HPK1 protein was produced in-house and preactivated by autophosphorylation of enzyme with MgATP as described in the section “Production of recombinant autophosphorylated full-length HPK1”.).
Type: single protein

Mitogen-activated protein kinase kinase kinase kinase 1, sequence (Q92918 whole entry): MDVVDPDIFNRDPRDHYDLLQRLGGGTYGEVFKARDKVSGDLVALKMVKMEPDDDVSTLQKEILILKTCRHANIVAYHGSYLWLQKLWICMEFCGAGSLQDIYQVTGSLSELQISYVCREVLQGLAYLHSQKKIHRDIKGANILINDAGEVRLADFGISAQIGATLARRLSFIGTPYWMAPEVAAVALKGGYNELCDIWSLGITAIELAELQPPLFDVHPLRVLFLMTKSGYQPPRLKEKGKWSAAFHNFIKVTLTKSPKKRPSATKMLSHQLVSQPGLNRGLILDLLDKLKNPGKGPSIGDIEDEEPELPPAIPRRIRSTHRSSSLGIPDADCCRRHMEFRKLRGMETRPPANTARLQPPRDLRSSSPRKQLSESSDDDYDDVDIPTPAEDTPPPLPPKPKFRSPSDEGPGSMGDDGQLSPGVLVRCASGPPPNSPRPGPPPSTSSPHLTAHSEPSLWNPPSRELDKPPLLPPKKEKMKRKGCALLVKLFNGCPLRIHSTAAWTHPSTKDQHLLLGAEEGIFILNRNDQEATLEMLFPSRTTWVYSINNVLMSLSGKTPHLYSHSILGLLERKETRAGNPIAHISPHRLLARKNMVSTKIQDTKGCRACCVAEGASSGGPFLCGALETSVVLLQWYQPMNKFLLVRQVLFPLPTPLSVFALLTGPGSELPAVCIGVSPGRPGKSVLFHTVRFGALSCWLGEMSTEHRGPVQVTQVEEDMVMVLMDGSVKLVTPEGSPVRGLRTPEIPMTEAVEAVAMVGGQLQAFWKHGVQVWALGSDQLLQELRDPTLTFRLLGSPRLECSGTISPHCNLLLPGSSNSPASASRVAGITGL

Compound	Ki [nM]
CCn1c(C)nnc1-c1cccc(N2Cc3c(cc(N4CCC[C@H]4C)nc3CNC)C2=O)n1	0.09
CNCc1nc(NC)cc2c1CN(c1cccc(-c3nncn3C(C)C)n1)C2=O	0.72
CNCc1nc(N2CCCC2)cc2c1CN(c1cccc(-c3nncn3[C@@H](C)CC(F)(F)F)n1)C2=O	< 0.07
Cc1nnc(-c2cccc(N3Cc4c(cc(N5CCCC5(C)C)nc4CN)C3=O)n2)n1C(C)C	0.1
